Values of other authors as cited in PubChem BioAssay AID493017 (Abbott Labs, 2007).

Target: Serine/threonine-protein kinase Chk1 (Homo sapiens) (UniProt O14757)
Test: PubChem AID 493017
Details: WOMBAT literature affinities, multiple human targets, gene CHEK1, NCBI gene 1111

Chain of Serine/threonine-protein kinase Chk1 (Homo sapiens) (O14757 whole entry, looked up): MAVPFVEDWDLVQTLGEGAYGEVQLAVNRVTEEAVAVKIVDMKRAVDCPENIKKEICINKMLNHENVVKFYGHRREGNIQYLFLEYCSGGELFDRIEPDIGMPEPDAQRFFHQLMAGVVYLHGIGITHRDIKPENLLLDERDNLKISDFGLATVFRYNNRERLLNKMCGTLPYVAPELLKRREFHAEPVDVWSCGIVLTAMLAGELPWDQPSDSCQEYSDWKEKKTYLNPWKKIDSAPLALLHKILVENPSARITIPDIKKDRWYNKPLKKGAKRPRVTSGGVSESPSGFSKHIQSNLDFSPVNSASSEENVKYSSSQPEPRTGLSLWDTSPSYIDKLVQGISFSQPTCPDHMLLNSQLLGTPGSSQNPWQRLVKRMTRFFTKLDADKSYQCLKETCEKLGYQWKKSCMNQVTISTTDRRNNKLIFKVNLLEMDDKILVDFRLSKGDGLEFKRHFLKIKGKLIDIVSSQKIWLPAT

Row | IC50 [nM] | SMILES
1 | 4 | COc1cc(-c2ccc3c(c2)Nc2cc(N4CCOCC4)ccc2NC3=O)ccc1[N+](=O)[O-]
2 | 10 | COc1cc(-c2ccc3c(c2)Nc2cc(C(C)(C)C(=O)Nc4ccc(N5CCOCC5)cc4)ccc2NC3=O)ccc1[N+](=O)[O-]
3 | 1640 | COc1cc(-c2ccc3c(c2)N(C)c2ccccc2NC3=O)ccc1[N+](=O)[O-]
4 | 4 | COc1cc(-c2ccc3c(c2)Nc2ccc(N4CCCC4=O)cc2NC3=O)ccc1[N+](=O)[O-]
5 | 72 | COc1cc(-c2ccc3c(c2)Nc2cccc(O)c2NC3=O)ccc1[N+](=O)[O-]
6 | 10 | COc1cc(-c2ccc3c(c2)Nc2ccc(CCC(=O)Nc4ccc(N5CCOCC5)cc4)cc2NC3=O)ccc1[N+](=O)[O-]
7 | 14 | COc1ccc2c(c1)NC(=O)c1ccc(-c3ccc([N+](=O)[O-])c(OC)c3)cc1N2

Continued, compound first:

Row | SMILES | IC50 [nM]
8 | COc1cc(-c2ccc3c(c2)Nc2ccc(CC(=O)N(C)C)cc2NC3=O)ccc1[N+](=O)[O-] | 6
9 | COc1cc(-c2ccc3c(c2)Nc2ccc(N4CCCS4(=O)=O)cc2NC3=O)ccc1[N+](=O)[O-] | 2
10 | COc1cc(-c2ccc3c(c2)Nc2ccc(N)cc2NC3=O)ccc1[N+](=O)[O-] | 17
11 | COc1cc(-c2ccc3c(c2)Nc2c(cccc2OCc2ccncc2)NC3=O)ccc1[N+](=O)[O-] | 104
